Assays:
[1] = tested on: TNF-α release from human PBMCs; experiment: Cell based assay for TNF-α release, PDE IV inhibitor in combination with p38 MAP Kinase inhibitors; settings: inhibiting TNF-α release from human PBMCs
Protocol: Blood was collected in heparin or EDTA vacutainers from healthy human volunteers and Peripheral Blood Mononuclear Cells isolated using Ficoll Hypaque gradient. The cells were resuspended in serum free RPMI 1640 medium at a concentration of 2 million cells/ml.). […] of this cell suspension was co-incubated with 20 μl of compound, alone or in combination, for 10 min in a flat bottom 96 well microtiter plate. Compounds were dissolved in DMSO initially and diluted in medium for a final concentration of 0.2% DMSO. LPS (1 μg/ml, final concentration) was then added at a volume of 10 μl per well. After 30 min, 20 μl of fetal calf serum (final concentration of 10%) was added to each well. Cultures were incubated overnight at 37° C. in an atmosphere of 5% CO2 and 95% air. Supernatant were then removed and tested by ELISA for TNF-α release using a commercial kit (e.g. BD Biosciences). The level of TNF-α in treated wells was compared with the vehicle treated controls and inhibitory potency of compound was expressed as IC50 values calculated from the percent inhibition values by using Graph pad prism.

[2] = tested on: LPS induced airway hyperreactivity and neutrophil count in BAL; experiment: In-vivo assay of PDE-IV inhibitors in combination with muscarinic receptor antagonists (LPS airway hyperreactivity and neutrophilia); settings: Wistar rats, intratracheal, combination with Tiotropium
Protocol: MRA (1 ng/kg to 1 mg/kg) and PDE-IV inhibitor (1 ng/kg to 1 mg/kg) were instilled intratracheally under anesthesia either alone or in combination.
Wistar rats weighing 200±20 gm were used in the study. Rats had free access to food and water. On the day of experiment, animals were exposed to lipopolysaccharide (LPS, 100 μg/ml) for 40 min. One group of vehicle treated rats was exposed to phosphate buffered saline (PBS) for 40 min. […] The respiratory parameters were recorded online using Biosystem XA software, (Buxco Electronics, USA). Penh, at any chosen dose of acetylcholine was expressed as percent of PBS response and using a nonlinear regression analysis PC100 (2 folds of PBS value) values were computed. […]
PC100LPS=PC100 in vehicle treated and LPS challenged group PC100TEST=PC100 in group treated with a given dose of test compound PC100PBS=PC100 in vehicle treated group challenged with PBS Immediately after the airway hyperreactivity response was recorded, animals were sacrificed and bronchoalveolar lavage (BAL) performed. […] Total leukocyte and Neutrophil counts were expressed as cell count (millions cells ml^−1 of BAL). […]

## COc1cc(C2=NO[C@]3(CCOC3)C2)ccc1OC(F)F (single isomer, unassigned) [Compound No. 266, (5S or 5R)-3-[4-(Difluoromethoxy)-3-methoxyphenyl]-1,7-dioxa-2-azaspiro[4.4]non-2-ene]
[1]
  Indication: synergistic response
[2]
  synergy with muscarinic receptor antagonist (MRA): synergy

— patent publication US20090054382A1, “COMPOSITIONS OF PHOSPHODIESTERASE TYPE IV INHIBITORS” (priority 2005, published 2009)
